Assay results: patent US20070203212A1, “METHOD OF TREATING OSTEOARTHRITIS” (WARNER-LAMBERT COMPANY, priority 2002, published 2007)
Marks after values point to notes of the source that are not given here.

Assays:
[1] = test system: monosodium iodoacetate (MIA)-induced osteoarthritis; test: MIA rat model, acute single oral dose: change in hind paw weight distribution (joint pain); type: in vivo; details: for shift in weight bearing potential (joint pain) versus pre-dose: 2, 4 and 6 hours post administration
Description: (§1) It should be appreciated that in Biological Methods 1, 2, 4, and 5 below, hind paw weight bearing differentials between the paw of the limb having the control joint (in animals administered test compound vehicle only) and the paw of the limb having the contralateral test joint (in control or inducement animals administered test compound vehicle only and in treatment animals administered test compound dissolved in test compound vehicle) were determined using an incapacitance tester, model 2KG (Linton Instrumentation, Norfolk, United Kingdom). The incapacitance tester has a chamber on top with an outwardly sloping front wall that supports a rat's front limbs, and two weight sensing pads, one for each hind paw, that facilitates this determination. The hind paw weight bearing differentials were expressed in grams and calculated as follows: (the average weight in grams placed on the control limb minus the average weight in grams placed on the contralateral test limb for each of the inducement or treatment animals) minus (the average weight in grams placed on the control limb minus the average weight in grams placed on the contralateral test limb for each of the control animals). All results were statistically analyzed by comparing the average results for an induction or treatment group with the average result for its control group at the same time point using analysis of covariance (“ANCOVA”) followed by the Hoehberg's procedure and those with statistical significance had p<0.05 unless otherwise noted.
The rats were anesthetized with 5% volume/volume (“v/v”) isoflurane gas and maintained with 2% v/v isoflurane gas. The anesthetized rats were given a single intra-articular injection of 1 mg of MIA through the infrapatellar ligament of the right knee. MIA was dissolved in physiologic saline and administered in a volume of 50 μL. The contralateral control knee was injected with 50 μL of physiologic saline. Administration of isoflurane gas was discontinued, and the rats became fully conscious about 5 minutes later.
Shifts in hind paw weight distribution from the right to the left hind paws supporting the right (arthritic) and the left (contralateral control) hind leg knee joints were utilized as an index of joint pain and as a measure of compound efficacy. An incapacitance tester (Model 2KG, Linton Instrumentation, UK) was employed for determination of hind paw weight distribution. Each data point is the mean of three readings of 5 seconds duration.
CI-1027 (i.e., 6-(5-carboxy-5-methyl-hexyloxy)-2,2-dimethyl-hexanoic acid, calcium salt) was dissolved in hydroxypropylmethylcellulose (“HPMC”) vehicle (0.05% HPMC+0.2% Tween 80; compound amount was adjusted based on the percent of free acid, i.e., 6-(5-carboxy-5-methyl-hexyloxy)-2,2-dimethyl-hexanoic acid).
[…] Rats were then given a single, 10, 30, or 100 mg/kg, dose of CI-1027 via oral gavage (PO). Changes in hind paw weight distribution were determined 2, 4 and 6 hours post-compound administration.
6-(5-carboxy-5-methyl-hexyloxy)-2,2-dimethyl-hexanoic acid, calcium salt (“CI-1027”) and rofecoxib was tested in the rat MIA model in an acute dosing paradigm as described previously. MIA was injected into the right knee and saline into the left knee of all rats on Day 0. […] Two hours later, the rats were reassessed. The results for inhibition of pain, expressed as a percentage±standard error of the mean, are shown below in Table 5. The percent inhibition of pain was determined as described above in Biological Method 1. […] N=8 rats per group.

[2] = test system: monosodium iodoacetate (MIA)-induced osteoarthritis; test: MIA rat model, chronic oral b.i.d. dosing: change in hind paw weight distribution (joint function limitation / joint pain); type: in vivo; details: for IJFL (Inhibition of Joint Function Limitation) (% +/− SEM): four week study; for change in hind paw weight distribution: Days 7, 14 and 28 (FIG. 3); for inhibition of change in hind paw weight distribution: 30 mg/kg PO b.i.d.
Description: as §1
Generally, In the MIA Rat model on Day 0, the hind-paw weight differential between the right arthritic joint and the left healthy joint of male Wistar rats (150 g) are determined with an incapacitance tester, model 2KG (Linton Instrumentation, Norfolk, United Kingdom). The incapacitance tester has a chamber on top with an outwardly sloping front wall that supports a rat's front limbs, and two weight sensing pads, one for each hind paw, that facilitates this determination. Then the rats are anesthetized with isofluorine, and the right, hind leg knee joint is injected with 1.0 mg of mono-iodoacetate (“MIA”) through the infrapatellar ligament. Injection of MIA into the joint results in the inhibition of glycolysis and eventual death of surrounding chondrocytes. The rats are further administered either an active compound useful in the invention method, or a pharmaceutically acceptable salt thereof, or vehicle (in the instant case, water) daily for 14 days or 28 days. The substituted dialkyl ether, substituted aryl-alkyl ether, substituted dialkyl thioether, substituted dialkyl ketone, or substituted-alkyl compound useful in the invention method, or a pharmaceutically acceptable salt thereof, is typically administered at a dose of 30 mg of substituted dialkyl ether, substituted aryl-alkyl ether, substituted dialkyl thioether, substituted dialkyl ketone, or substituted-alkyl compound useful in the invention method, or a pharmaceutically acceptable salt thereof, per kilogram of rat per day (30 mg/kg/day), but may be administered at other doses such as, for example, mg/kg/day, 60 mg/kg/day, 90-mg/kg/day, or 100 mg/kg/day according to the requirements of the compound being studied. It is well within the level of ordinary skill in the pharmaceutical arts to determine a proper dosage of an active compound useful in the invention method, or a pharmaceutically acceptable salt thereof, in this model. Administration of the substituted dialkyl ether, substituted aryl-alkyl ether, substituted dialkyl thioether, substituted dialkyl ketone, or substituted-alkyl compound useful in the invention method, or a pharmaceutically acceptable salt thereof, in this model is optionally by oral administration or intravenous administration via an osmotic pump. After 7 and 14 days for a two week study, or 7, 14, and 28 days for a four week study, the hind-paw weight distribution is again determined. […]

SMILES: CC(C)(CCCCOCCCCC(C)(C)C(=O)[O-])C(=O)[O-].[Ca+2] [CI-1027, 6-(5-carboxy-5-methyl-hexyloxy)-2,2-dimethyl-hexanoic acid, calcium salt]
- shift in weight bearing potential (joint pain) versus pre-dose ([1]; 10 mg/kg PO single dose on Day 14): did not significantly alter
- shift in weight bearing potential (joint pain) versus pre-dose ([1]; 30 mg/kg PO single dose on Day 14): only the change at the 4-hour post dose time point was statistically significant
- shift in weight bearing potential (joint pain) versus pre-dose ([1]; 100 mg/kg PO single dose on Day 14): statistically significant
- Mean pain alleviation at 2 hours post administration (% ± SEM) ([1]; CI-1027 10 mg/kg PO alone, Day 14): 20 ± 9%
- Inhibition of Pain (% versus control), MIA (acute) ([1]; single oral dose 30 mg/kg on Day 7, 4 hours post dose): 67 ± 8%
- IJFL (Inhibition of Joint Function Limitation) (% +/− SEM) ([2]; 3 mg/kg PO BID): 3 +/− 156%
- change in hind paw weight distribution ([2]; 3 mg/kg PO b.i.d.): no statistically significant changes
- IJFL (Inhibition of Joint Function Limitation) (% +/− SEM) ([2]; 10 mg/kg PO BID): 36 +/− 9%
- change in hind paw weight distribution ([2]; 10 mg/kg PO b.i.d.): no statistically significant changes
- IJFL (Inhibition of Joint Function Limitation) (% +/− SEM) ([2]; 30 mg/kg PO BID, dose-response experiment): 63 +/− 8^a %
- IJFL (Inhibition of Joint Function Limitation) (% +/− SEM) ([2]; 30 mg/kg PO BID, single-dose-level experiment (last table row)): 60 +/− 8^a %
- inhibition of change in hind paw weight distribution ([2]; Day 7, dose-response experiment (FIG. 3), not significant): 38±14%
- inhibition of change in hind paw weight distribution ([2]; Day 7, first experiment (FIG. 2)): 47±8%
- inhibition of change in hind paw weight distribution ([2]; Day 14, dose-response experiment (FIG. 3)): 50±10%
- inhibition of change in hind paw weight distribution ([2]; Day 14, first experiment (FIG. 2)): 71±9%
- inhibition of change in hind paw weight distribution ([2]; Day 28, dose-response experiment (FIG. 3)): 62±8%
- inhibition of change in hind paw weight distribution ([2]; Day 28, first experiment (FIG. 2)): 60±8%
